Laboratory results taken from patent US20080003660A1, “Use of fast-release pristinamycin-type and polyether ionophore type antimicrobial agents in the production of ethanol” (priority 2006, published 2008).

Experiments:
[1] = pH in the fermenters; cited from earlier work
[2] = format: physicochemical
Text: In one embodiment, the liquid phase of the slurry comprises water and up to 25%, for example between 15% and 23%, of ethanol. This ethanol will pre-dissolve a very small portion of the antimicrobial agents from the particles, giving the injected slurry a small but almost instantaneous punch.

L. plantarum = test: development of resistance test, 10 week duration; format: cell-based; conditions: 10 week duration of the test
Text: One very effective control program involves the introduction of pristinamycin-type antimicrobial agents, and particularly virginiamycin, to the process. […] Usually, the “waste” byproduct, known as “Dried Distillers Grains with solubles (DDGS), is sold as animal feed, going 45% to dairy, 35% to beef, 15% to swine, and 5% to poultry industries. This is an important factor in the profitability of an ethanol production process, and the total amount of this byproduct produced per year is on the order of 3.5 million metric tons per year. The presence of residual antimicrobial agents in this material can adversely affect the value of this byproduct, as small residual amounts of antimicrobial agents in feed will promote the development of agent-resistant microorganisms. We have tested DDG samples from 8 major ethanol producers using virginiamycin to control microorganisms and found no detectable amount of virginiamycin in the DDG (<1 ppm via the validated Eurofins analysis and <1 ppb via an unvalidated experimental analytical procedure). […] Generally, however, the virginiamycin in mash is destroyed by drying so virginiamycin must be re-added to the feed if so desired. Other effective control programs employ polyether ionophore antimicrobial agents, which provide many of the benefits obtained with pristinamycin-type antimicrobial agents. […]

[3] = dissolution of 0.1 gram powder in 4 liters of stirred water; format: physicochemical; conditions: 5.2 to 10 micron average particle size, 0.1 gram in 4 liters water, continuously stirred
Text: The over-riding factor in controlling pests such as lactobacilli, however, is the rate of dissolution of small granular pristinamycin-type antimicrobial agents and polyether ionophore-type antimicrobial agents in water or mash. A 0.1 gram sample of a 5.2 to 10 micron average particle size virginiamycin was placed in a beaker with 4 liters of water, and the composition was continuously and vigorously stirred (providing very good mixing and turbulence). The presence of undissolved crystals was very evident. […] Such slow dissolution will reduce effectiveness of pulse treatments as it takes a long time for the added agents to become solubilized and effective, and will reduce the highest concentration of added agents resulting from a pulsed addition as some of the agent may be removed from the fermentator or other tank before the maximum amount of added agent is solubilized, and because some added agent may not dissolve at all. The solubility of monensin, virginiamycin, and similar pristinamycin-type antimicrobial agents and polyether ionophore-type antimicrobial agents in water is very low. Much more important, however, is the rate of dissolution of small granular pristinamycin-type antimicrobial agents and polyether ionophore-type antimicrobial agents in water. […]

[4] = stability in water (hydrolysis); format: physicochemical
Experimental: In another embodiment at least a portion of said antimicrobial agent is added to the mash as a composition comprising particles comprising said substantially water insoluble antimicrobial agent(s), said composition being in the form of a slurry. In another embodiment at least a portion of said antimicrobial agent is added to the mash as a composition comprising particles comprising said substantially water insoluble antimicrobial agent(s) and having a weight mean average diameter of between 0.1 and 2 microns, said composition being in the form of a slurry. Many of the preferred antimicrobial agents have a slight instability when dissolved in water, which can be significant over long storage periods. […] Coating particles with protectorants will reduce stability problems. Placing the slurry in a […] substantially water-free material, be it fatty acids, surfactants, dispersants, solvents in which the antimicrobial agents have minimal solubility (called an “oil flowable slurry”), or any combination of the above can reduce loss of antimicrobial agent. […] An oil-flowable slurry can be readily prepared by milling the antimicrobial agents as described herein, but where the solvent replaces the water in the milling process. […]

[5] = cited from earlier work

[H]/N=C(/N)N[C@H]1[C@H](O)[C@@H](O)[C@H](O[C@@H]2O[C@@H](C)[C@](O)(C=O)[C@H]2O[C@@H]2O[C@@H](CO)[C@H](O)[C@@H](O)[C@@H]2NC)[C@@H](N/C(N)=N\[H])[C@@H]1O [streptomycin]
inactivation at fermenter pH [1]: partially inactivated

CC[C@@]1([C@@H]2O[C@@H]([C@H]3O[C@@](O)(CO)[C@H](C)C[C@@H]3C)C[C@@H]2C)CC[C@H]([C@]2(C)CC[C@]3(C[C@H](O)[C@@H](C)[C@@H]([C@@H](C)[C@@H](OC)[C@H](C)C(=O)O)O3)O2)O1 [monensin]
solubility in water/ethanol [2]: high solubility

virginiamycin
time for L. plantarum to develop resistance (L. plantarum): no development of resistance
time before only a few crystals remained visible [3]: on the order of an hour
stability when in water [4]: slow hydrolysis
solubility in water/ethanol [2]: high solubility
solubility in water [5]: 0.0001 grams/l

penicillin
inactivation at fermenter pH [1]: partially inactivated
